Measured values from the kinase profiling compilation of Christmann-Franck et al. (2016).

Experiments:
Assay in all cases: SelectScreen, TR FRET
ERBB2 (human) = ERBB2 (human) (UniProt P04626)
JAK2 JH1 JH2 (human) = JAK2 JH1 JH2 (human) (UniProt O60674)
[1] = test system: RAF1 (human), P04049 [Y340D/Y341D]
CDK5 CDK5R1 p25 (human) = CDK5 CDK5R1 p25 (human) (UniProt Q15078+Q00535)
GSK3B (human) = GSK3B (human) (UniProt P49841)
TAOK2 (human) = TAOK2 (human) (UniProt Q9UL54)
MAPK1 (human) = MAPK1 (human) (UniProt P28482)
INSR (human) = INSR (human) (UniProt P06213)
MAPK13 (human) = MAPK13 (human) (UniProt O15264)
[2] = molecular target: PRKAA2 PRKAB1 PRKAG1 (human) (UniProt Q9Y478+P54646+P54619); conditions: compound 0.1 µM
SGK1 (human) = SGK1 (human) (UniProt O00141)
GSK3A (human) = GSK3A (human) (UniProt P49840)
MARK2 (human) = MARK2 (human) (UniProt Q7KZI7)
CDK7 CCNH MNAT1 (human) = CDK7 CCNH MNAT1 (human) (UniProt P50613+P51948+P51946)
SYK (human) = SYK (human) (UniProt P43405)
TEK (human) = TEK (human) (UniProt Q02763)
ABL1 (human) = ABL1 (human) (UniProt P00519)
FGFR2 (human) = FGFR2 (human) (UniProt P21802)
AKT2 (human) = AKT2 (human) (UniProt P31751)
RPS6KB1 (human) = RPS6KB1 (human) (UniProt P23443)
PIM1 (human) = PIM1 (human) (UniProt P11309)
PKN1 (human) = PKN1 (human) (UniProt Q16512)
PKN1 (human), sequence (Q16512 whole entry, looked up): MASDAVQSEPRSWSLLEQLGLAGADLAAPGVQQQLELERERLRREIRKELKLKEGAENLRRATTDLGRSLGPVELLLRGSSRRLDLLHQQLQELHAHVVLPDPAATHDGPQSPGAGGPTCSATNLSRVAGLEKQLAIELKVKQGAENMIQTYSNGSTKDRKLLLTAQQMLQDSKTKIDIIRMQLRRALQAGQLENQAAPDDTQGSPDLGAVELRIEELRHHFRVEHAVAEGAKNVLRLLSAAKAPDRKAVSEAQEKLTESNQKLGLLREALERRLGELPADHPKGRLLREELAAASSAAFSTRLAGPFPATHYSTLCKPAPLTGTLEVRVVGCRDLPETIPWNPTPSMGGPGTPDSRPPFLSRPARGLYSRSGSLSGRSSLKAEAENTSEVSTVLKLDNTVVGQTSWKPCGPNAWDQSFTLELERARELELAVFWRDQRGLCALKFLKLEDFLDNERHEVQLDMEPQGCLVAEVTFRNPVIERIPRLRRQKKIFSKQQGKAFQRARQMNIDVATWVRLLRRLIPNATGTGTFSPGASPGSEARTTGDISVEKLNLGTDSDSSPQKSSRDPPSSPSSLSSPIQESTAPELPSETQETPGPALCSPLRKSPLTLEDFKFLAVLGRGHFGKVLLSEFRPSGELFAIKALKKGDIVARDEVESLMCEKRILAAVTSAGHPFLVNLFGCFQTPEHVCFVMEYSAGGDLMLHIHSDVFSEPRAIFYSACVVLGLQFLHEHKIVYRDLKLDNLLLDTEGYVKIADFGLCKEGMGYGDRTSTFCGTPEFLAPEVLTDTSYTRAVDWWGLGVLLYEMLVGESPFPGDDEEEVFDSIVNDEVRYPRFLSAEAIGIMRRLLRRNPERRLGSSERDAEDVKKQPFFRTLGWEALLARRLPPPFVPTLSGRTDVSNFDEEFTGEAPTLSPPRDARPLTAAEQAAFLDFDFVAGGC

KIT (human) = KIT (human) (UniProt P10721)
KIT (human), sequence (P10721 whole entry, looked up): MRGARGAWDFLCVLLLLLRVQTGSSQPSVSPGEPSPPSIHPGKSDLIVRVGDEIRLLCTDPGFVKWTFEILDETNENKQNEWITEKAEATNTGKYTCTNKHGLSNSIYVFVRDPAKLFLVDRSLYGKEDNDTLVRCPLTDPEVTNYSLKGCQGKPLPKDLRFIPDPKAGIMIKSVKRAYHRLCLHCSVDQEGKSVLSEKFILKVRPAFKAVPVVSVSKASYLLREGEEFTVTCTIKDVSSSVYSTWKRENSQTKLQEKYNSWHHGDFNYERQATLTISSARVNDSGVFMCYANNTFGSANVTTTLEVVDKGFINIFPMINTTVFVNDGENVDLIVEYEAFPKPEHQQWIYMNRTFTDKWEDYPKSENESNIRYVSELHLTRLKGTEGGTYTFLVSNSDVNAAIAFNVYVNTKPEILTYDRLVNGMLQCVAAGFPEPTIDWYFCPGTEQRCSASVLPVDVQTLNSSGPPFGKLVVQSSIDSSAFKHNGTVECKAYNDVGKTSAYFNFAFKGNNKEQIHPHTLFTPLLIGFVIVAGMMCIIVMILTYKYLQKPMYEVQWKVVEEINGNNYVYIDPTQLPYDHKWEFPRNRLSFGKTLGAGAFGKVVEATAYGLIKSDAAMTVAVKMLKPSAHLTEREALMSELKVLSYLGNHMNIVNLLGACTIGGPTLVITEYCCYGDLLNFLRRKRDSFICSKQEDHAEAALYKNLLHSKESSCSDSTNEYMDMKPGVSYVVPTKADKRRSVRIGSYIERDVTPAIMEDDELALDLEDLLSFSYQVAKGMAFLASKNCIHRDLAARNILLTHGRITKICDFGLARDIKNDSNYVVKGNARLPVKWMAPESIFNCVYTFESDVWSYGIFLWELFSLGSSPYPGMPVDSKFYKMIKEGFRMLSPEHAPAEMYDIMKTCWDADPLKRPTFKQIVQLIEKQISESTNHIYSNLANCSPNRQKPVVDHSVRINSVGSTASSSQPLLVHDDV

NEK2 (human) = NEK2 (human) (UniProt P51955)
NTRK3 (human) = NTRK3 (human) (UniProt Q16288)
NTRK3 (human), sequence (Q16288 whole entry, looked up): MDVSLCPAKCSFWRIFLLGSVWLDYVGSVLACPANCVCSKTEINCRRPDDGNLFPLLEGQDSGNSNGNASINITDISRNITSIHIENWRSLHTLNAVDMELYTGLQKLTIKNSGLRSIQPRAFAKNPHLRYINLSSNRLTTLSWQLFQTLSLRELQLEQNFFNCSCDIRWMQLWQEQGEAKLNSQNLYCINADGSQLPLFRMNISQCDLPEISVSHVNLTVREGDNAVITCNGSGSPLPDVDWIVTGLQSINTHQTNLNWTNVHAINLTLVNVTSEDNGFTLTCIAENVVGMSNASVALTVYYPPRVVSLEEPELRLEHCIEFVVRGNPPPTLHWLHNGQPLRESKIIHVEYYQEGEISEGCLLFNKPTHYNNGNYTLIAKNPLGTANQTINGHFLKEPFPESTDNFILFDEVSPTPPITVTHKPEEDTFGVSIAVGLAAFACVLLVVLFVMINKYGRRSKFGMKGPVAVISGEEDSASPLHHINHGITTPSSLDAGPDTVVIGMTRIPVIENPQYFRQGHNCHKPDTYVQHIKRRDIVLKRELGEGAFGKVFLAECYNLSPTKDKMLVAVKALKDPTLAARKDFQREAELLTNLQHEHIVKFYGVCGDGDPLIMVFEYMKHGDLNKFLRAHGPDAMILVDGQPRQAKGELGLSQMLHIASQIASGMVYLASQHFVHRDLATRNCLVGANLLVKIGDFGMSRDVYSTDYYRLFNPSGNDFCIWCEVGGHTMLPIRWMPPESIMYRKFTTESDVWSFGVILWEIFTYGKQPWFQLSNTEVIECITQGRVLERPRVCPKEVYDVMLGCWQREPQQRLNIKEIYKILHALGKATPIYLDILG

GRK6 (human) = GRK6 (human) (UniProt P43250)
ROCK2 (human) = ROCK2 (human) (UniProt O75116)
CLK2 (human) = CLK2 (human) (UniProt P49760)

JAK2 JH1 JH2 (human), sequence (O60674 whole entry, looked up): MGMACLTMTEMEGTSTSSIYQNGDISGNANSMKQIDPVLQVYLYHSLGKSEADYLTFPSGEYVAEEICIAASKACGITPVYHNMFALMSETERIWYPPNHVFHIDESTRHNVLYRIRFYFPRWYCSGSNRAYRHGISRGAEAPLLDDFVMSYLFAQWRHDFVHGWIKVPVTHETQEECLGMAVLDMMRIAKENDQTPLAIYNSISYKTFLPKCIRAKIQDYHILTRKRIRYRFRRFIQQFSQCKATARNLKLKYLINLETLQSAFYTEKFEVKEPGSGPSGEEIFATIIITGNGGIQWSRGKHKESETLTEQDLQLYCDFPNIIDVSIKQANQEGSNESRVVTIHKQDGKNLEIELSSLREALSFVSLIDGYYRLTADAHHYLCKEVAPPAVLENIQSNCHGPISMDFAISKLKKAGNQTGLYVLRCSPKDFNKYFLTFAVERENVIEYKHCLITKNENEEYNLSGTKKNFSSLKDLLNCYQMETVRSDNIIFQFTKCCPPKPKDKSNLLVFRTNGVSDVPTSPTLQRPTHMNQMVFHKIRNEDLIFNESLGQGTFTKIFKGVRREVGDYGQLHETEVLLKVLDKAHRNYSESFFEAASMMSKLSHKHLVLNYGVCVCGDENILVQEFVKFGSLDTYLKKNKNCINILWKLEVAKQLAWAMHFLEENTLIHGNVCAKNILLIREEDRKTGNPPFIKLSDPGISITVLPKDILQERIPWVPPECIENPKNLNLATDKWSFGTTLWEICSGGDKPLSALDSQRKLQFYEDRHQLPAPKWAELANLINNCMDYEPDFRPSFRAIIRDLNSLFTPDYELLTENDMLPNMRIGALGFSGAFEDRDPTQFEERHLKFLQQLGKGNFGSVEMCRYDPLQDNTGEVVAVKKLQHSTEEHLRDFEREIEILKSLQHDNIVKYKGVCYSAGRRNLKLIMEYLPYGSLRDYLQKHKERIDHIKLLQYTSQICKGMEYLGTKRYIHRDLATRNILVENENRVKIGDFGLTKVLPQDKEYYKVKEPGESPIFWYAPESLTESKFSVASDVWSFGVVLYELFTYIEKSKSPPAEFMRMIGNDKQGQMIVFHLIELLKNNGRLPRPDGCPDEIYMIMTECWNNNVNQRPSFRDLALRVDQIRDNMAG
TAOK2 (human), sequence (Q9UL54 whole entry, looked up): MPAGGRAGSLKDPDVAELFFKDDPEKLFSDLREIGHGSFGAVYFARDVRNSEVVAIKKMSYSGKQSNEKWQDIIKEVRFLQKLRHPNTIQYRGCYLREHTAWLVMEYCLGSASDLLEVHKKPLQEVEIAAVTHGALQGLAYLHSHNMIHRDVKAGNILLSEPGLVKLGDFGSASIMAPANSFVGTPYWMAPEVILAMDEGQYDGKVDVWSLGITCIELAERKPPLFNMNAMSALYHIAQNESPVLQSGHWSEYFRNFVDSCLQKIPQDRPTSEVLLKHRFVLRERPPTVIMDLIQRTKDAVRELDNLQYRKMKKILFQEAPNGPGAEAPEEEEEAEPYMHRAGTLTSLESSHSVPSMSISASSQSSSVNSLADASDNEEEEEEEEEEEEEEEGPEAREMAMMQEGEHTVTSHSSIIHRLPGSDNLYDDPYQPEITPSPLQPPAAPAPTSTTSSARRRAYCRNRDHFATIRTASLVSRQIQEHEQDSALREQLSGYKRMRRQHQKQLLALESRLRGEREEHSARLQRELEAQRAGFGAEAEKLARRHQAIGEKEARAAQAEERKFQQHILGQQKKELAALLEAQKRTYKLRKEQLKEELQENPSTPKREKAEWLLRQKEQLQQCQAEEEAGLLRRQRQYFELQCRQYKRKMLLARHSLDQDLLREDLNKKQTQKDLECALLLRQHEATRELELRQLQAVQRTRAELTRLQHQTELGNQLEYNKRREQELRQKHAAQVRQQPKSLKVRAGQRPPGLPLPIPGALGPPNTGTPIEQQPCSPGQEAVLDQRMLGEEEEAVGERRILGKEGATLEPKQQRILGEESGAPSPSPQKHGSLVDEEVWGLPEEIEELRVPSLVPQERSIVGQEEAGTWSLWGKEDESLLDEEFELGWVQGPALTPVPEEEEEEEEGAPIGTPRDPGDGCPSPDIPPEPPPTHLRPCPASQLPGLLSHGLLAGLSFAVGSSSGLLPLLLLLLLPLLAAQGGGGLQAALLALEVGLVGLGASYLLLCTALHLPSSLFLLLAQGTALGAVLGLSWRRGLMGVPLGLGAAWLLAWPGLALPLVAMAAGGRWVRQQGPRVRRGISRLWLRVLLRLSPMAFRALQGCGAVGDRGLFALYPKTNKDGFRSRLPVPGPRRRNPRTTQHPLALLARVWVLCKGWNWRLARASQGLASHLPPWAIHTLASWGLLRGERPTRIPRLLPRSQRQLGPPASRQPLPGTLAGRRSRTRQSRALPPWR

inhibition (ERBB2 (human); compound 0.1 µM): -4.3%
inhibition (ERBB2 (human); compound 1.0 µM): 2.2%
inhibition (ERBB2 (human); compound 10.0 µM): -10.5%
inhibition (JAK2 JH1 JH2 (human); compound 0.1 µM): 4.4%
inhibition (JAK2 JH1 JH2 (human); compound 1.0 µM): 12.5%
inhibition (JAK2 JH1 JH2 (human); compound 10.0 µM): 41%
inhibition ([1]; compound 0.1 µM): 26.2%
inhibition ([1]; compound 1.0 µM): 25.4%
inhibition ([1]; compound 10.0 µM): 7%
inhibition (CDK5 CDK5R1 p25 (human); compound 0.1 µM): 6.6%
inhibition (CDK5 CDK5R1 p25 (human); compound 1.0 µM): 6.7%
inhibition (CDK5 CDK5R1 p25 (human); compound 10.0 µM): 14.5%
inhibition (GSK3B (human); compound 0.1 µM): 7.3%
inhibition (GSK3B (human); compound 1.0 µM): 8.1%
inhibition (GSK3B (human); compound 10.0 µM): 64%
inhibition (TAOK2 (human); compound 0.1 µM): 10.9%
inhibition (TAOK2 (human); compound 1.0 µM): 7%
inhibition (TAOK2 (human); compound 10.0 µM): -17.5%
inhibition (MAPK1 (human); compound 0.1 µM): 12.7%
inhibition (MAPK1 (human); compound 1.0 µM): 8.8%
inhibition (MAPK1 (human); compound 10.0 µM): -8.1%
inhibition (INSR (human); compound 0.1 µM): 9.9%
inhibition (INSR (human); compound 1.0 µM): 7.3%
inhibition (INSR (human); compound 10.0 µM): 0.6%
inhibition (MAPK13 (human); compound 0.1 µM): 14.5%
inhibition (MAPK13 (human); compound 1.0 µM): 15.8%
inhibition (MAPK13 (human); compound 10.0 µM): 10%
inhibition [2]: 11.6%
inhibition (SGK1 (human); compound 0.1 µM): 10.9%
inhibition (SGK1 (human); compound 1.0 µM): 17.4%
inhibition (SGK1 (human); compound 10.0 µM): 49.8%
inhibition (GSK3A (human); compound 0.1 µM): 8.6%
inhibition (GSK3A (human); compound 1.0 µM): 12.5%
inhibition (GSK3A (human); compound 10.0 µM): 65.6%
inhibition (MARK2 (human); compound 0.1 µM): 12.1%
inhibition (MARK2 (human); compound 1.0 µM): 14.2%
inhibition (MARK2 (human); compound 10.0 µM): 19.7%
inhibition (CDK7 CCNH MNAT1 (human); compound 0.1 µM): 1%
inhibition (CDK7 CCNH MNAT1 (human); compound 1.0 µM): 6.4%
inhibition (CDK7 CCNH MNAT1 (human); compound 10.0 µM): 11.8%
inhibition (SYK (human); compound 0.1 µM): 19.9%
inhibition (SYK (human); compound 1.0 µM): 13.2%
inhibition (SYK (human); compound 10.0 µM): 61.6%
inhibition (TEK (human); compound 0.1 µM): -0.9%
inhibition (TEK (human); compound 1.0 µM): 4.6%
inhibition (TEK (human); compound 10.0 µM): 45.3%
inhibition (ABL1 (human); compound 0.1 µM): 19.9%
inhibition (ABL1 (human); compound 1.0 µM): 14.1%
inhibition (ABL1 (human); compound 10.0 µM): 81.7%
inhibition (FGFR2 (human); compound 0.1 µM): 14.2%
inhibition (FGFR2 (human); compound 1.0 µM): 33.5%
inhibition (FGFR2 (human); compound 10.0 µM): 74%
inhibition (AKT2 (human); compound 0.1 µM): 9.8%
inhibition (AKT2 (human); compound 1.0 µM): 11.3%
inhibition (AKT2 (human); compound 10.0 µM): 15.6%
inhibition (RPS6KB1 (human); compound 0.1 µM): 5.5%
inhibition (RPS6KB1 (human); compound 1.0 µM): 19.7%
inhibition (RPS6KB1 (human); compound 10.0 µM): 25.1%
inhibition (PIM1 (human); compound 0.1 µM): 6%
inhibition (PIM1 (human); compound 1.0 µM): 5.4%
inhibition (PIM1 (human); compound 10.0 µM): 23.6%
inhibition (PKN1 (human); compound 0.1 µM): 12.2%
inhibition (PKN1 (human); compound 1.0 µM): 13.6%
inhibition (PKN1 (human); compound 10.0 µM): -14.2%
inhibition (KIT (human); compound 0.1 µM): 9.7%
inhibition (KIT (human); compound 1.0 µM): 13.2%
inhibition (KIT (human); compound 10.0 µM): 48.1%
inhibition (NEK2 (human); compound 0.1 µM): 15.7%
inhibition (NEK2 (human); compound 1.0 µM): 9.8%
inhibition (NEK2 (human); compound 10.0 µM): -56.3%
inhibition (NTRK3 (human); compound 0.1 µM): 18.8%
inhibition (NTRK3 (human); compound 1.0 µM): 34.5%
inhibition (NTRK3 (human); compound 10.0 µM): 77.1%
inhibition (GRK6 (human); compound 0.1 µM): 5.6%
inhibition (GRK6 (human); compound 1.0 µM): 7%
inhibition (GRK6 (human); compound 10.0 µM): 13.4%
inhibition (ROCK2 (human); compound 0.1 µM): -1.9%
inhibition (ROCK2 (human); compound 1.0 µM): -0.2%
inhibition (ROCK2 (human); compound 10.0 µM): -5.8%
inhibition (CLK2 (human); compound 0.1 µM): 9.2%
inhibition (CLK2 (human); compound 1.0 µM): 22.8%
inhibition (CLK2 (human); compound 10.0 µM): 69.8%
Structure (SMILES): Cn1cc(-c2cnc3ccc4ccc(CC(=O)NCc5ccccn5)cc4c(=O)c3c2)cn1
